Entries after “also recorded” stand apart in the source; their conditions may differ. Bounds are passed on as bounds.

A word on the viability: it is a read-out of living cells in per cent, often relative to untreated cells. What is called IC50 is the concentration that gives 50% inhibition.

For data set [1] the following is noted: in vivo; cited from earlier work.
Data set [2] relates to α-tubulin acetylation. In words: Western blot of α-tubulin acetylation in H1975 cells. Format: cell-based, human. The following applies: flunarizine up to 10 μM, 24 h. How it is done: After the cancer cells were treated with the designated drug candidates, they were harvested in lysis buffer (0.05 M HEPES, 0.15 M NaCl, 2 mM EDTA, 10% v/v glycerol, and 1% v/v Triton X-100, pH 7.4) supplemented with protease and phosphatase inhibitors. Sodium dodecyl sulfate poly(acrylamide) gel electrophoresis (SDS-PAGE) was used to separate the different proteins in the whole cell lysates, which were then transferred to a poly(vinylidene difluoride) membrane for immunoblot analysis using different specific antibodies (acetylated histone H3, acetylated α-tubulin, histone H3, or GAPDH; Cell Signaling Technology). The bands corresponding to specific proteins of interest were visualized by using the WesternBright ECL HRP substrate (Advansta, San Jose, California). A chemiluminescent Western blot signal was detected and analyzed using a ChemiDoc MP system (Bio-Rad Laboratories, Hercules, California).

For data set [3], the system named is NSCLC cell lines. In words: cells. Format: cell-based. The following applies: Homo sapiens, read-out: effect on cancer cell viability.
Data set [4] has as its system BEAS-2B.
The target of data set [5] is recombinant human HDAC1 (Homo sapiens, UniProt Q13547). In words: biochemical.
Chain of recombinant human HDAC1 (Q13547 whole entry): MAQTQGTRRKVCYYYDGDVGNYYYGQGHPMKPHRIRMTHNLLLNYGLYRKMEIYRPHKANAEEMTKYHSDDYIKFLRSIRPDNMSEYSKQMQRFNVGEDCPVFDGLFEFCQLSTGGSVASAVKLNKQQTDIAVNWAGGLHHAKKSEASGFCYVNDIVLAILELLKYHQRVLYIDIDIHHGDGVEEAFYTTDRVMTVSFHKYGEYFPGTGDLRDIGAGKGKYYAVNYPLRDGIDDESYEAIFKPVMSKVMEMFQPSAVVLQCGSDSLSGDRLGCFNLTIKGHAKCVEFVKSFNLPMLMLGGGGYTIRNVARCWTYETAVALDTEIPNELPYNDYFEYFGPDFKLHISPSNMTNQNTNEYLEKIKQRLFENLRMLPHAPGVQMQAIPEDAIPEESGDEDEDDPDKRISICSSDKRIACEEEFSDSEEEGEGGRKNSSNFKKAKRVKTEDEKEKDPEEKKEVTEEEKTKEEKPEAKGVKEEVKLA
In data set [6] the test system is H1975 cells. In words: cells. The following applies: Homo sapiens, NCI-H1975, read-out: cell viability (%).
Data set [7] concerns the target recombinant human HDAC3 (Homo sapiens, UniProt O15379). The data set can be described thus: biochemical.
For data set [8], the system named is H1975 cells. The data set can be described thus: Transwell invasion assay. In kind it is cell-based, human. The following applies: flunarizine 5 or 10 μM, 48 h.
Data set [9] relates to A549 cells. In words: SRB cell proliferation assay, A549. The following applies: Homo sapiens, A549, read-out: cell viability (%).
For data set [10], the system named is H1975 cells. In words: Wound healing assay. Format: cell-based, human. The conditions noted are these: up to 48 h. An excerpt: After the cells had grown to about 80% confluence, a physical gap was created on the cell monolayer by scratching with a pipet tip. […] The scratch closure rate was estimated by the change in the wound width over time. It was presented as the relative gap width (%) by dividing the average distance between the two margins of the scratch at the indicated time by the initial distance at the start of the wound healing assay.

Chain of recombinant human HDAC3 (O15379 whole entry): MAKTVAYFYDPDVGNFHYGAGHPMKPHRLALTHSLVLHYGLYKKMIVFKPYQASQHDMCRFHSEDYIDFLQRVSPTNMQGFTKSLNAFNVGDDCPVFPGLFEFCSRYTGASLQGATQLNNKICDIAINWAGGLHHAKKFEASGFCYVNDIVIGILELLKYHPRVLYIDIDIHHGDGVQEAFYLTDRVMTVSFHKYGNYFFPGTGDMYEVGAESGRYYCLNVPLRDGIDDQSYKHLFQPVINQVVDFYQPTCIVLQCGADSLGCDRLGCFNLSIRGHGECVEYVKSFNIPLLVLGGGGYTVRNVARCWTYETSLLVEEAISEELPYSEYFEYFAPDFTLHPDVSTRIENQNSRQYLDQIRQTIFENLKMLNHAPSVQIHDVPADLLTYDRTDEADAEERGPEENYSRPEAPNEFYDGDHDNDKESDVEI
Chain of recombinant human HDAC3 (Q9Y618 395-489 partner limits assumed): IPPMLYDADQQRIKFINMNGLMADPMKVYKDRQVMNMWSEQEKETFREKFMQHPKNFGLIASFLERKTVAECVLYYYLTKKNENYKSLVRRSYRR

For `Fc1ccc(C(c2ccc(F)cc2)N2CCN(C/C=C/c3ccccc3)CC2)cc1` [flunarizine], the elimination half-life entry in data set [1] was “around 18 days”. In addition, the “effect on acetylation of α-tubulin” value in data set [2] was “did not affect acetylation of α-tubulin; also recorded: did not affect the acetylation”. Further, in data set [3], the viability at 20 µM was no more than 25%. In addition, the “effect on cell viability of BEAS-2B” value in [4] is “did not appreciably affect the cell viability”. The IC50 came out at 285 ± 15 nM in [5] and 305 ± 31 nM in data set [7]. Further, the viability at 2.5 µM in [6] was 95 ± 8%; in data set [9], 101 ± 5%. Further, the viability at 5 µM in data set [6] turned out to be 94 ± 6%; in [9], 95 ± 6%. Moreover, the figures for the viability at 10 µM in data set [6] and in data set [9] were 86 ± 7% and 102 ± 8%, respectively. Besides, the cancer cell invasion result in data set [8] is given as “inhibition”. Besides, in data set [10], the cancer cell migration result was “inhibited the cell migration ability”.

Values taken from publication PMC10580381 (ACS Pharmacology & Translational Science, 2023).
